Patent US11504363B2, “Method of treating cancer and bone cancer pain” (Exelixis, Inc., priority 2011, dated 2022)

Legend:
[1] = Phase 1 clinical study, tolerability; assay type: in vivo, human; conditions: most common adverse events: fatigue, diarrhea, anorexia, rash, palmar-plantar erythrodysesthesia
[2] = test system: CRPC patients with bone metastases; assay: Phase 2 adaptive randomized discontinuation trial (RDT), Case Study 2; assay type: in vivo, human; conditions: for patients reporting improvements in bone pain: baseline bone pain; for patients achieving tumor regression / patients experiencing pain relief / patients reducing or eliminating need for narcotic analgesics / patients with marked declines in markers of bone turnover / patients free of disease progression at month 6: post hoc
Description: Data on bone pain and narcotic use, as assessed by the investigator, were collected retrospectively.

[3] = test system: breast cancer with bone metastases; assay: Randomized discontinuation study, breast cancer with bone metastases (Case Study 6); assay type: in vivo, human; conditions: of 10 evaluable for bone scan resolution (forty percent)
xenograft tumor models = assay: Xenograft tumor models; conditions: in vivo
[4] = test system: melanoma with bone metastases; assay: Randomized discontinuation study, melanoma with bone metastases (Case Study 5); assay type: in vivo, human; conditions: 39 of 65 patients
[5] = test system: renal cell carcinoma with bone metastases; assay: Phase I trial, renal cell carcinoma with bone metastases (Case Study 4); assay type: in vivo, human
[6] = test system: pancreatic neuroendocrine tumor model; assay: Murine pancreatic neuroendocrine tumor model; conditions: mouse, in vivo
[7] = test system: differentiated thyroid cancer, bone metastasis to the skull; assay: Phase 1 drug-drug trial, differentiated thyroid cancer with bone metastasis (Case Study 7); assay type: in vivo, human; conditions: one patient, after 9 weeks of treatment
[8] = test system: CRPC patients with evidence of bone metastases on bone scan; assay: Phase 2 adaptive trial NCT00940225, first three CRPC patients with bone metastases (Case Study 1); assay type: in vivo, human
Method: In 2000, local disease recurrence was treated with radiation therapy. […] CAB with leuprolide and bicalutamide was initiated.

[9] = patients with bone scan resolution
[10] = patients without bone scan resolution

## COc1cc2nccc(Oc3ccc(NC(=O)C4(C(=O)Nc5ccc(F)cc5)CC4)cc3)c2cc1OC [Compound 1, N-(4-{[6,7-bis(methyloxy)quinolin-4-yl]oxy}phenyl)-N′-(4-fluorophenyl)cyclopropane-1,1-dicarboxamide]
[1]
  tolerability: generally well-tolerated
[2]; 47 of 67 patients on narcotic analgesics at baseline
  patients able to decrease or discontinue narcotic medication for bone pain: 70%
[2]; 56 of 83 patients with bone metastases and bone pain at baseline, at either Week 6 or 12
  patients with pain improvement: 68%
[2]; 82 of 108 evaluable patients
  patients with resolution or stabilization of metastatic bone lesions on bone scan: 76%
[2]; anemic patients
  hemoglobin levels in anemic patients: Durable increases
[2]; complete resolution by bone scan (n=10)
  patients reporting improvements in bone pain: 80%
[2]; partial resolution by bone scan (n=32)
  patients reporting improvements in bone pain: 84%
[2]; stabilization of disease by bone scan (n=13)
  patients reporting improvements in bone pain: 38%
[2]; docetaxel-naïve patients (95% CI 24, upper limit not yet reached)
  median PFS: 24 weeks
[2]; docetaxel-pretreated patients (95% CI 18, 33)
  median PFS: 29 weeks
[2]; independent reviewer, 23 of n=108
  patients with stable disease (SD) on bone scan: 21%
[2]; independent reviewer, 82 of n=108
  subjects with partial or complete resolution of bone scan: 76%
[2]; independent reviewer, three of n=108
  patients with progressive disease in bone as best assessment: 3%
[2]; overall population excluding those randomized to placebo, n=154
  median PFS: 29 weeks
[2]; [9]
  patients achieving tumor regression: 78%
  patients experiencing pain relief: 83%
  patients reducing or eliminating need for narcotic analgesics: 68%
  patients with marked declines in markers of bone turnover: 60%
[2]; patients with bone scan resolution (complete or partial)
  patients free of disease progression at month 6: 61%
[2]; [10]
  patients achieving tumor regression: 58%
  patients experiencing pain relief: 43%
  patients reducing or eliminating need for narcotic analgesics: 33%
  patients with marked declines in markers of bone turnover: 43%
[2]; patients without bone scan resolution (stable or progressing bone scan)
  patients free of disease progression at month 6: 35%
[2]; randomized discontinuation phase
  reduction in the risk of progression compared with placebo: 87%
[2]; randomized discontinuation phase, patients with SD at week 12, Compound 1 group n=14 (95% CI: 11 weeks, upper limit not yet reached)
  investigator-assessed median PFS from week 12 onward: 21 weeks
[3]
  patients with tumor shrinkage based on bone scan analysis: 4 patients
Xenograft tumor models
  tumor effect in xenograft tumor models: causes tumor regression
[4]
  patients with tumor shrinkage based on bone scan analysis: 60%
[5]; one patient (FIG. 4)
  bone scan analysis: tumor shrinkage was observed
[5]; same patient, by seven weeks, continued until week 25
  narcotic use to control pain: substantially reduced narcotic use
[5]; second patient, pain score 5 on a scale of 10 at baseline, by four weeks, pain-free as of week 73
  pain: complete resolution of pain
[6]
  overall survival: substantially improves
  tumor invasiveness and metastasis: significantly reduces
[7]
  response of skull bone metastasis as judged by MRI: dramatic response
[8]; Patient 1
  Bone scan (best response): Complete resolution
  Hemoglobin (best response, change): +1.4 g/dL
  PSA (best response, change): −78%
  Pain (best response): Improvement
  tALP (best response, change): −77%
[8]; Patient 1, Week 6
  radiotracer uptake by bone metastases on bone scan: dramatic decrease
[8]; Patient 1, Week 12, stable through Week 18
  bone lesions on bone scan: near complete resolution
[8]; Patient 1, Week 18
  adverse event leading to withdrawal: Grade 3 diarrhea
[8]; Patient 1, four weeks after start
  bone pain: significant reduction
[8]; Patient 2
  Bone scan (best response): Improvement
  Hemoglobin (best response, change): +1.8 g/dL
  PSA (best response, change): +61%
  Pain (best response): Pain-free
  tALP (best response, change): −6%
[8]; Patient 2, Week 4
  bone pain: reduction in bone pain
[8]; Patient 2, Week 6
  radiotracer uptake by bone lesions on bone scan: slight flair
[8]; Patient 2, Week 12
  hemoglobin increase compared with baseline: 1.8 g/dL
  radiotracer uptake on bone scan: substantial reduction
[8]; Patient 2, by Week 16, placebo from Week 12, crossed over to Compound 1 at Week 15
  PSA peak: ~6 fold of baseline
[8]; Patient 2, by Week 18, subsequent to crossing over to Compound 1 from placebo
  PSA: 2 fold of baseline
[8]; Patient 3
  Bone scan (best response): Near resolution
  Hemoglobin (best response, change): +2.2 g/dL
  PSA (best response, change): −57%
  Pain (best response): Pain-free
  tALP (best response, change): −77%
[8]; Patient 3, Week 2
  hemoglobin increase compared with baseline: 2.2 g/dL
[8]; Patient 3, Week 6
  radiotracer uptake on bone scan: dramatic reduction
[8]; Patient 3, Week 12
  bone lesions on bone scan: complete resolution of bone lesions
[8]; Patient 3, after three weeks
  pain: complete resolution of pain
